Reference: ChEMBL document CHEMBL5579809, “Exploration of bromodomain ligand-linker conjugation sites for efficient CBP/p300 heterobifunctional degrader activity” (Bioorg Med Chem Lett, 2024)
Activity calls are given as the source filed them. The rule behind the calls is not given here.

Columns and labels:
[1] = molecular target: T1, Protein cereblon/CREB-binding protein (Homo sapiens) (UniProt Q92793+Q96SW2); assay: PROTAC activity at CRBN/HiBiT-tagged CBP in human HAP1 cells assessed as induction of CBP degradation by measuring maximal efficacy at 10 nM measured over 24 hrs by luminescence based analysis relative to control; type: cell-based
[2] = molecular target: T1, Protein cereblon/CREB-binding protein (Homo sapiens); assay: PROTAC activity at CRBN/HiBiT-tagged CBP in human HAP1 cells assessed as induction of CBP degradation by measuring maximal efficacy at 100 nM measured over 24 hrs by luminescence based analysis relative to control; type: cell-based
[3] = molecular target: T1, Protein cereblon/CREB-binding protein (Homo sapiens); assay: PROTAC activity at CRBN/HiBiT-tagged CBP in human HAP1 cells assessed as induction of CBP degradation by measuring maximal efficacy at 1000 nM measured over 24 hrs by luminescence based analysis relative to control; type: cell-based
[4] = molecular target: T1, Protein cereblon/CREB-binding protein (Homo sapiens); assay: PROTAC activity at CRBN/HiBiT-tagged CBP in human HAP1 cells assessed as induction of CBP degradation by measuring degradation rate at 10 nM measured over 24 hrs by luminescence based analysis; type: cell-based
[5] = molecular target: T1, Protein cereblon/CREB-binding protein (Homo sapiens); assay: PROTAC activity at CRBN/HiBiT-tagged CBP in human HAP1 cells assessed as induction of CBP degradation by measuring degradation rate at 100 nM measured over 24 hrs by luminescence based analysis; type: cell-based
[6] = molecular target: T1, Protein cereblon/CREB-binding protein (Homo sapiens); assay: PROTAC activity at CRBN/HiBiT-tagged CBP in human HAP1 cells assessed as induction of CBP degradation by measuring degradation rate at 1000 nM measured over 24 hrs by luminescence based analysis; type: cell-based
[7] = molecular target: T1, Protein cereblon/CREB-binding protein (Homo sapiens); assay: PROTAC activity at CRBN/HiBiT-tagged CBP in human HAP1 cells assessed as total cumulative degradation by measuring AUC at 0.01 nM measured over 24 hrs by luminescence based analysis; type: cell-based
[8] = molecular target: T1, Protein cereblon/CREB-binding protein (Homo sapiens); assay: PROTAC activity at CRBN/HiBiT-tagged CBP in human HAP1 cells assessed as total cumulative degradation by measuring AUC at 0.1 nM measured over 24 hrs by luminescence based analysis; type: cell-based
[9] = molecular target: T1, Protein cereblon/CREB-binding protein (Homo sapiens); assay: PROTAC activity at CRBN/HiBiT-tagged CBP in human HAP1 cells assessed as total cumulative degradation by measuring AUC at 1 nM measured over 24 hrs by luminescence based analysis; type: cell-based
[10] = molecular target: T1, Protein cereblon/CREB-binding protein (Homo sapiens); assay: PROTAC activity at CRBN/HiBiT-tagged CBP in human HAP1 cells assessed as total cumulative degradation by measuring AUC at 10 nM measured over 24 hrs by luminescence based analysis; type: cell-based
[11] = molecular target: T1, Protein cereblon/CREB-binding protein (Homo sapiens); assay: PROTAC activity at CRBN/HiBiT-tagged CBP in human HAP1 cells assessed as total cumulative degradation by measuring AUC at 100 nM measured over 24 hrs by luminescence based analysis; type: cell-based
[12] = molecular target: T1, Protein cereblon/CREB-binding protein (Homo sapiens); assay: PROTAC activity at CRBN/HiBiT-tagged CBP in human HAP1 cells assessed as total cumulative degradation by measuring AUC at 1000 nM measured over 24 hrs by luminescence based analysis; type: cell-based
[13] = molecular target: T2, Protein cereblon/Histone acetyltransferase p300 (Homo sapiens) (UniProt Q09472+Q96SW2); assay: PROTAC activity at CRBN/HiBiT-tagged p300 in human HAP1 cells assessed as induction of p300 degradation by measuring degradation rate at 10 nM measured over 24 hrs by luminescence based analysis; type: cell-based
[14] = molecular target: T2, Protein cereblon/Histone acetyltransferase p300 (Homo sapiens); assay: PROTAC activity at CRBN/HiBiT-tagged p300 in human HAP1 cells assessed as induction of p300 degradation by measuring degradation rate at 100 nM measured over 24 hrs by luminescence based analysis; type: cell-based
[15] = molecular target: T2, Protein cereblon/Histone acetyltransferase p300 (Homo sapiens); assay: PROTAC activity at CRBN/HiBiT-tagged p300 in human HAP1 cells assessed as induction of p300 degradation by measuring degradation rate at 1000 nM measured over 24 hrs by luminescence based analysis; type: cell-based
[16] = molecular target: T2, Protein cereblon/Histone acetyltransferase p300 (Homo sapiens); assay: PROTAC activity at CRBN/HiBiT-tagged p300 in human HAP1 cells assessed as induction of p300 degradation by measuring maximal efficacy at 10 nM measured over 24 hrs by luminescence based analysis relative to control; type: cell-based
[17] = molecular target: T2, Protein cereblon/Histone acetyltransferase p300 (Homo sapiens); assay: PROTAC activity at CRBN/HiBiT-tagged p300 in human HAP1 cells assessed as induction of p300 degradation by measuring maximal efficacy at 100 nM measured over 24 hrs by luminescence based analysis relative to control; type: cell-based
[18] = molecular target: T2, Protein cereblon/Histone acetyltransferase p300 (Homo sapiens); assay: PROTAC activity at CRBN/HiBiT-tagged p300 in human HAP1 cells assessed as induction of p300 degradation by measuring maximal efficacy at 1000 nM measured over 24 hrs by luminescence based analysis relative to control; type: cell-based
[19] = molecular target: T2, Protein cereblon/Histone acetyltransferase p300 (Homo sapiens); assay: PROTAC activity at CRBN/HiBiT-tagged p300 in human HAP1 cells assessed as total cumulative degradation by measuring AUC at 0.01 nM measured over 24 hrs by luminescence based analysis; type: cell-based
[20] = molecular target: T2, Protein cereblon/Histone acetyltransferase p300 (Homo sapiens); assay: PROTAC activity at CRBN/HiBiT-tagged p300 in human HAP1 cells assessed as total cumulative degradation by measuring AUC at 0.1 nM measured over 24 hrs by luminescence based analysis; type: cell-based
[21] = molecular target: T2, Protein cereblon/Histone acetyltransferase p300 (Homo sapiens); assay: PROTAC activity at CRBN/HiBiT-tagged p300 in human HAP1 cells assessed as total cumulative degradation by measuring AUC at 1 nM measured over 24 hrs by luminescence based analysis; type: cell-based
[22] = molecular target: T2, Protein cereblon/Histone acetyltransferase p300 (Homo sapiens); assay: PROTAC activity at CRBN/HiBiT-tagged p300 in human HAP1 cells assessed as total cumulative degradation by measuring AUC at 10 nM measured over 24 hrs by luminescence based analysis; type: cell-based
[23] = molecular target: T2, Protein cereblon/Histone acetyltransferase p300 (Homo sapiens); assay: PROTAC activity at CRBN/HiBiT-tagged p300 in human HAP1 cells assessed as total cumulative degradation by measuring AUC at 100 nM measured over 24 hrs by luminescence based analysis; type: cell-based
[24] = molecular target: T2, Protein cereblon/Histone acetyltransferase p300 (Homo sapiens); assay: PROTAC activity at CRBN/HiBiT-tagged p300 in human HAP1 cells assessed as total cumulative degradation by measuring AUC at 1000 nM measured over 24 hrs by luminescence based analysis; type: cell-based
[25] = molecular target: Protein cereblon/Bromodomain-containing protein 4 (Homo sapiens) (UniProt O60885+Q96SW2); assay: PROTAC activity at CRBN/HiBiT-tagged BRD4 in human HAP1 cells assessed as induction of BRD4 degradation measured over 24 hrs by luminescence based analysis; type: cell-based
[26] = molecular target: T2, Protein cereblon/Histone acetyltransferase p300 (Homo sapiens); assay: Binding affinity to recombinant CRBN/p300 bromodomain (unknown origin) assessed as ternary complex formation at 10 to 100 nM by Alphascreen-based proximity assay; type: protein assay; settings: dose 10-100 nM
[27] = molecular target: T1, Protein cereblon/CREB-binding protein (Homo sapiens); assay: Binding affinity to recombinant CRBN/CBP bromodomain (unknown origin) assessed as ternary complex formation at 10 to 100 nM by Alphascreen-based proximity assay; type: protein assay; settings: dose 10-100 nM
[28] = molecular target: T1, Protein cereblon/CREB-binding protein (Homo sapiens); assay: PROTAC activity at CRBN/HiBiT-tagged CBP in human HAP1 cells assessed as induction of CBP degradation by measuring maximal efficacy at 1 nM measured over 24 hrs by luminescence based analysis relative to control; type: cell-based
[29] = molecular target: T1, Protein cereblon/CREB-binding protein (Homo sapiens); assay: PROTAC activity at CRBN/HiBiT-tagged CBP in human HAP1 cells assessed as induction of CBP degradation by measuring degradation rate at 1 nM measured over 24 hrs by luminescence based analysis; type: cell-based
[30] = molecular target: T2, Protein cereblon/Histone acetyltransferase p300 (Homo sapiens); assay: PROTAC activity at CRBN/HiBiT-tagged p300 in human HAP1 cells assessed as induction of p300 degradation by measuring degradation rate at 1 nM measured over 24 hrs by luminescence based analysis; type: cell-based
[31] = molecular target: T2, Protein cereblon/Histone acetyltransferase p300 (Homo sapiens); assay: PROTAC activity at CRBN/HiBiT-tagged p300 in human HAP1 cells assessed as induction of p300 degradation by measuring maximal efficacy at 1 nM measured over 24 hrs by luminescence based analysis relative to control; type: cell-based

T1 sequence (Q92793 2-2442 limits assumed): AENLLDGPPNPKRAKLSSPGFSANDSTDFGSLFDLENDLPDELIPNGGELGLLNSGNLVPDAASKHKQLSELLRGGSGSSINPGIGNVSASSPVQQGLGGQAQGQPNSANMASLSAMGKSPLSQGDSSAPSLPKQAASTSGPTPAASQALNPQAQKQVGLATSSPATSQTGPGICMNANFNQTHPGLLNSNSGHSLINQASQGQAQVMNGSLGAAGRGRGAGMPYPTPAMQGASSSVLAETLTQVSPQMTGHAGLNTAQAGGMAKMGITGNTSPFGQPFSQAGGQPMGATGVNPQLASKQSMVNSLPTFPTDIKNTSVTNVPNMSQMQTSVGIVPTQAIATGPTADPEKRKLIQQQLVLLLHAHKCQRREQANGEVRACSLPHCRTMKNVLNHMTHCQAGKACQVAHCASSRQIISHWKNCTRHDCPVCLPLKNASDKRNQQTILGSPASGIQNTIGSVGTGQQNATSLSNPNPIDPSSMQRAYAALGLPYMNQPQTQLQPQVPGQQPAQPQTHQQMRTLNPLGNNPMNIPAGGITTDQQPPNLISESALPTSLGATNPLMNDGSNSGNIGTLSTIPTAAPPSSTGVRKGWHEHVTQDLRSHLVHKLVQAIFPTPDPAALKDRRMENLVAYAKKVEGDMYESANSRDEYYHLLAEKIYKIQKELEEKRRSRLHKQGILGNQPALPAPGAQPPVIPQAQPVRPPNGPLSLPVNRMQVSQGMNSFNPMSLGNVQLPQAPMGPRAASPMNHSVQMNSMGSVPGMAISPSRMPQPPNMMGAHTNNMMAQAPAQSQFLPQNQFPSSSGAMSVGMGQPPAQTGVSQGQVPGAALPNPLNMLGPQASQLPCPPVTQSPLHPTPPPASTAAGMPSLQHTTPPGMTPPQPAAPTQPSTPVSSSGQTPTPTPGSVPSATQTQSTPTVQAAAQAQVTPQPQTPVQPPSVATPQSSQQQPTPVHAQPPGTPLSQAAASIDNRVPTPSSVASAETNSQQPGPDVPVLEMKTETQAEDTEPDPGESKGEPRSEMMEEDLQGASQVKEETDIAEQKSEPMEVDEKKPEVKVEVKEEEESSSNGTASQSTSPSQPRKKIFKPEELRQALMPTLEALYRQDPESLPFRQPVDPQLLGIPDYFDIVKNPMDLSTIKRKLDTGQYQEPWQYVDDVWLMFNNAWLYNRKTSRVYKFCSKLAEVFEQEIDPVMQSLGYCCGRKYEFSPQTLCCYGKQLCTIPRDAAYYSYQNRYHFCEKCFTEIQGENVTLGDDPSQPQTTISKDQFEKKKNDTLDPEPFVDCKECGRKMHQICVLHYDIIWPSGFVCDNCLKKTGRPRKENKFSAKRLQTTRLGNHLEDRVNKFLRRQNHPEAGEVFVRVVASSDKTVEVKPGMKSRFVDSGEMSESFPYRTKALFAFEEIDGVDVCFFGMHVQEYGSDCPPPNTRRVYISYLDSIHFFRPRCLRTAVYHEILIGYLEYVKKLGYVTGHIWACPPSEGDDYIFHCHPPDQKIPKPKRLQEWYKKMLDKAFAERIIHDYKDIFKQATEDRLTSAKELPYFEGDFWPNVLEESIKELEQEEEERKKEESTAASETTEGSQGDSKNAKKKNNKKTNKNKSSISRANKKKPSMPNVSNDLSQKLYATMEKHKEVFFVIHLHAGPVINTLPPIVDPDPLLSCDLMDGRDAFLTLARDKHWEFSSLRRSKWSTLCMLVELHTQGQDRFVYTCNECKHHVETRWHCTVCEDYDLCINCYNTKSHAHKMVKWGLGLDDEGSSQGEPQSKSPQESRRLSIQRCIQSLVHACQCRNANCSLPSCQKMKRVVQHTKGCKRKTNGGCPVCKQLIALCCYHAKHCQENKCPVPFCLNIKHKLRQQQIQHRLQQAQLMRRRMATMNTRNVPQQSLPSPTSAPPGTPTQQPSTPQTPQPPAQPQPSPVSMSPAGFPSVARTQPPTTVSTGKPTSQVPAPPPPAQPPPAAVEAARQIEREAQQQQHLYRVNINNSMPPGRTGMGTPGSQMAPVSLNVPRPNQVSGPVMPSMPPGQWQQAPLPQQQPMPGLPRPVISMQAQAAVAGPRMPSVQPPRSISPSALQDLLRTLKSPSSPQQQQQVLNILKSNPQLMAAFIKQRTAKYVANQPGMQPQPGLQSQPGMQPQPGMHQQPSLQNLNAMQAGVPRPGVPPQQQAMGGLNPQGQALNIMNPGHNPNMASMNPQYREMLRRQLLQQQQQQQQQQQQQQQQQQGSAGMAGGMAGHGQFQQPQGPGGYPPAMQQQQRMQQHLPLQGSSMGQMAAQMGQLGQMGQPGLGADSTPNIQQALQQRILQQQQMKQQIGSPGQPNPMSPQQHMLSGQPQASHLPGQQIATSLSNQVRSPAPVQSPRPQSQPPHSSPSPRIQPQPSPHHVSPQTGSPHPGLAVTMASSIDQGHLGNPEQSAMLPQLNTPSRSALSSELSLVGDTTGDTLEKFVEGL
T1 sequence (Q96SW2 whole entry partner): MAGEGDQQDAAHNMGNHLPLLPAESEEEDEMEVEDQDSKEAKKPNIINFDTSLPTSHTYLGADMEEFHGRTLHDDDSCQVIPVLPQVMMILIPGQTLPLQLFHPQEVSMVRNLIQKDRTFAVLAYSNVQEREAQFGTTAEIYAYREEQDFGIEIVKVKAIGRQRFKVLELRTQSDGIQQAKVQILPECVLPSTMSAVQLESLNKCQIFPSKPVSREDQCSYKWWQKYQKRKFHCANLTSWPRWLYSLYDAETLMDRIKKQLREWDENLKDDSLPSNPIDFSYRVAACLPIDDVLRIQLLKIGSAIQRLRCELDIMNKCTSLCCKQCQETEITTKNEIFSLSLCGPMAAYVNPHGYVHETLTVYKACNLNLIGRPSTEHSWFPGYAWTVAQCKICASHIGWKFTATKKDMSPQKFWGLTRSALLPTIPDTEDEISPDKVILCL
Chain of Protein cereblon/Bromodomain-containing protein 4 (Homo sapiens) (Q96SW2 whole entry, looked up, other chains not shown): as the sequence (Q96SW2 whole entry partner) above

SMILES	Emax [1] [%]	Emax [2] [%]	Emax [3] [%]	AUC [7]	AUC [8]	AUC [9]	AUC [10]	AUC [11]	AUC [12]	Activity [15] [h⁻¹]	Emax [18] [%]	AUC [19]	AUC [20]	AUC [21]	AUC [22]	AUC [23]	AUC [24]	Activity [25]	Activity [26]	Activity [27]	other results
CNC(=O)N1CCc2c(c(N3CCCc4cc(-c5cnn(CC(=O)NCCOCCOCCOCCOCCNc6ccc7c(c6)C(=O)N(C6CCC(=O)NC6=O)C7=O)c5)c(C(F)F)cc43)nn2C2CCOCC2)C1 (stereo not given)	22	42	42	22.4	23.4	23.3	22.2	18	17.8	0.11	55	28	26.8	25.8	21.3	16.8	15.8	inactive	Active	Active	Activity [4]: 9.7 10^-3/hr; Activity [5]: 0.11 h⁻¹; Activity [6]: 0.12 h⁻¹; Activity [13]: 0.03 h⁻¹; Activity [14]: 0.11 h⁻¹; Emax [16]: 61%; Emax [17]: 51%
CNC(=O)N1CCc2c(c(N3CCCc4cc(-c5cnn(CC(=O)NCCOCCNc6ccc7c(c6)C(=O)N(C6CCC(=O)NC6=O)C7=O)c5)c(C(F)F)cc43)nn2C2CCOCC2)C1 (stereo not given)	44	63	59	24.2	25.5	22.6	16	12.1	15.1	0.14	65	25.7	27.3	22.6	13.7	10.4	13.5	inactive	Active	Active	Emax [28]: 20%; Activity [29]: 1.5 10^-4/hr; Activity [4]: 0.21 h⁻¹; Activity [5]: 0.22 h⁻¹; Activity [6]: 0.12 h⁻¹; Activity [30]: 0.004 h⁻¹; Activity [13]: 0.22 h⁻¹; Activity [14]: 0.26 h⁻¹; Emax [31]: 18%; Emax [16]: 55%; Emax [17]: 69%
CNC(=O)N1CCc2c(c(N3CCN(C(=O)NCCOCCOCCOCCOCCOCCOCCNc4ccc5c(c4)C(=O)N(C4CCC(=O)NC4=O)C5=O)c4cc(-c5cnn(C)c5)c(C(F)(F)F)cc43)nn2C2CCOCC2)C1 (stereo not given)	–	–	–	24.9	24.4	24.5	24.2	24.1	23	0.05	33	27.7	27.5	27.4	26.4	24.2	20.5	inactive	Active	Active	–
